Data taken from US10179138B2, “Pharmaceutical composition comprising 7β-hydroxycholesterol intravenous administration” (Immunopharm AG, priority 2016, dated 2019).
Like-named read-outs stand apart in the source and are kept apart here.

Experiments:
[1] = format: physicochemical; settings: for decomposition of 7β-hydroxycholesterol after sterilization: sterilization at 120° C.
Protocol: The solution has been stored in glass vials.
A readily prepared infusion solution (on the basis of physiological saline solution) has been stored at room temperature (<25° C.) for 3 months.

[2] = cited from earlier work
[3] = format: physicochemical
Source text: However, if you want to dilute the solution of 7β-hydroxycholesterol/solvent in an aqueous liquid, e.g. for the provision of an infusion solution, the substance flocculates. Thus, the inventors use a solubilizing agent in order to maintain 7β-hydroxycholesterol in the later infusion solution in solution.

[4] = test system: human cell lines of colon carcinoma; settings: cited from earlier work
[5] = cited from earlier work; for behaviour in aqueous solution over time: after several hours
[6] = readily prepared infusion solution (physiological saline), room temperature (<25° C.), 3 months

Row | Compound | decomposition of 7β-hydroxycholesterol on storage ([1]; concentrate stored at 40° C. for 3 months in glass vials) | decomposition of 7β-hydroxycholesterol after sterilization ([1]; concentrate) | decomposition of 7β-hydroxycholesterol after sterilization ([1]; readily prepared infusion solution (physiological saline solution)) | appearance / flocculation of solution on storage [1, 6] | decrease of content of 7β-hydroxycholesterol by HPLC after storage [1, 6] | solubility in water [2] | behaviour on dilution of solvent solution in aqueous liquid [3] | solubility in water soluble organic solvent [3] | stability of solution in water soluble organic solvent [3] | induction of apoptosis [4] | behaviour in aqueous solution over time [5] | stability in aqueous solution [5] | water solubility [5]
1 | CC(C)CCC[C@@H](C)[C@H]1CC[C@H]2[C@@H]3[C@@H](O)C=C4C[C@@H](O)CC[C@]4(C)[C@H]3CC[C@]12C [7β-hydroxycholesterol] | did not show a decomposition | remained stable | remained stable | remained clear, there was no flocculation | could not be determined | insoluble in water | flocculates | excellent solubility | remain stable for years | – | – | – | –
2 | CC(C)CCC[C@@H](C)[C@H]1CC[C@H]2[C@@H]3[C@@H](OC(=O)CCC(=O)[O-])C=C4C[C@@H](OC(=O)CCC(=O)[O-])CC[C@]4(C)[C@H]3CC[C@]12C.[Na+].[Na+] [7β-hydroxycholesteryl-bishemisuccinate-disodium] | – | – | – | – | – | – | – | – | – | induction of apoptosis | starts to decompose and to flocculate | instable | water soluble
3 | hydroxycholesteryl-bishemisuccinate-diethanolamine | – | – | – | – | – | – | – | – | – | induction of apoptosis | starts to decompose and to flocculate | instable | –
